The values below come from PubChem BioAssay AID179 (DTP/NCI, 2004).

The structures appear in SMILES notation. Activity calls are given as the source filed them.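 How the source made its calls: active means compounds giving half or more protection of infected cells from virus-caused growth loss, again on retest; inactive means the rest.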 Where a SMILES comes first, the peptide text is derived from it. The star is where a group is joined. Boc = CC(C)(C)OC(=O)*

This assay has as its system CEM cells HIV-1 protection, formazan growth assay. Description: NCI AIDS Antiviral Assay. Conditions: for IC50: measured here: growth of uninfected CEM cells. The procedure, abridged:
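Steps: treat uninfected and HIV-1-infected human CEM cells at five drug levels; quantify growth by soluble formazan; retest any compound reaching 50% protection; classify actives from the retest.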

As a reminder, the EC50 is the concentration needed to bring the measured effect to its halfway point. Usually IC50 stands for the concentration at which inhibition is half-maximal. Higher therefore signals weaker potency. Turning to `Cc1c(C(=O)c2ccccc2)n(COCCC[Se]c2ccccc2)c(=O)[nH]c1=O`, the EC50 was > 200 µM and the IC50 is 18.2 µM. Regarding `CC(C)C1CCC2(C)CC3C(CO)CC(O)C3C(C)(O)C/C=C/12` (stereo not given), the result was inactive. Consider `Cc1cc(NC(=O)NC(=O)c2ccccc2[N+](=O)[O-])ccc1Oc1ncc(Cl)cn1`, for which the outcome was inactive.

`CN(C)[C@@H]1C(=O)C(C(=O)NCNc2cccc(C(=O)O)c2C(=O)O)=C(O)[C@@]2(O)C(=O)C3=C(O)c4c(O)cccc4[C@@](C)(O)[C@H]3C[C@@H]12`: the EC50 is > 5.89 µM and the 50% inhibitory concentration (IC50) is > 5.89 µM. As for `CN(C)c1ccccc1CC(c1c[nH]c2ccccc12)c1c[nH]c2ccccc12`, the EC50 was > 19.1 µM and the IC50 was > 19.1 µM. Regarding `c1ccc([B-]2([C+]3CCCCC3)N3CCCCC3C3CCCCN32)cc1` (stereo not given), the EC50 is > 200 µM and the IC50 came to 8.32 µM. Taken in the same sequence, the figures for `Cn1c(=O)c2nc(NCC3CCCCC3)sc2n(C)c1=O` were > 107 µM and 102 µM. `COC(=O)C12CCC(=O)N1CC(=O)c1c2[nH]c2ccccc12` (stereo not given): the outcome was inactive.

Consider `NC1CC(=O)c2sc(I)cc21` (stereo not given), for which the EC50 is > 200 µM and the IC50 came to 102 µM. Regarding `NC(=O)c1cc(O)c(O)c(O)c1`, the EC50 is > 200 µM and the 50% inhibitory concentration (IC50) is 17 µM. Taken in the same sequence, the figures for `C/C=N\N1C(=O)c2ccccc2C1=O` were > 191 µM and > 191 µM. Taken in the same sequence, the figures for `CNc1ccc2[nH]c(=O)ccc2c1[N+](=O)[O-]` were > 12 µM and > 12 µM. Taken in the same sequence, the figures for `CC(C)=CCNc1ncnc2c1ncn2C1OC(CO)C(O)C1O` (stereo not given) were > 200 µM and 15.5 µM. Consider `N#Cc1cc2ccncc2c2ccccc12`, for which the EC50 is > 33.1 µM and the IC50 was determined as 24 µM. Taken in the same sequence, the figures for `O=C(/C=C/c1ccccc1Cl)c1ccccc1` were > 21.4 µM and 14.5 µM. Taken in the same sequence, the figures for `Cc1c(N=Nc2ccc([N+](=O)[O-])cc2)nc2scc(-c3ccccc3)n12` were > 14.5 µM and > 14.5 µM. Taken in the same sequence, the figures for `C=C1CC(COc2cc(Cl)nc(N)n2)C1` were > 200 µM and 24.5 µM. As to `O=S1(=O)OCCOS(=O)(=O)C1(Br)Br`, the EC50 is > 363 µM and the half-maximal inhibitory concentration (IC50) is > 363 µM. As to `CC(=O)Nc1cc(C(=O)Nc2cc(C(=O)Nc3cc(C(=O)Nc4cc(C(=O)Nc5cc(C(=O)NCCC(=O)NCCCN(C)C)n(C)c5)n(C)c4)n(C)c3)n(C)c2)n(C)c1`, the EC50 is > 174 µM and the concentration for half-maximal inhibition (IC50) was found to be 26.9 µM. Taken in the same sequence, the figures for `C#CCN(CCC)C(=O)COc1cc2c(O)c3c(O)c(C)c4c(c13)C(=O)C(C)(O/C=C/C(OC)C(C)C(OC(C)=O)C(C)C(O)C(C)C(O)C(C)/C=C/C=C(\C)C(=O)N2)O4` (stereo not given) were > 200 µM and 39.8 µM. On to `Cc1cn(C2CC(N=[N+]=[N-])C(COC(=O)C3CNC(=O)N3)O2)c(=O)[nH]c1=O` (stereo not given), for which the outcome was active and the IC50 turned out to be 93.3 µM. As to `CCN(CC)C(=O)N1CN(c2ccccc2)C2(CCN(CCCSc3ccc(F)cc3)CC2)C1=O`, the EC50 was > 200 µM and the concentration for half-maximal inhibition (IC50) stood at 9.77 µM. As for `C/C(Sc1ccccc1)=C1/CCCN(Cc2ccccc2)C1`, the EC50 is > 200 µM and the 50% inhibitory concentration (IC50) stood at 74.1 µM. `CCOC(=O)C(=O)Nc1c(C)cccc1C(C)(C)C`: the EC50 was > 135 µM and the half-maximal inhibitory concentration (IC50) was > 135 µM. Take `CCNC(=S)N/N=C(\C)c1cccc(C)n1`: the EC50 is > 2 µM and the half-inhibitory concentration (IC50) worked out at 1.1 µM. Taken in the same sequence, the figures for `Cc1cn(C2CC(O)C(COC(=O)CCCCCCCCCCBr)O2)c(=O)[nH]c1=O` (stereo not given) were > 102 µM and 53.7 µM. Turning to `CC1=NN(C(=O)c2ccc(O)cc2)C(=O)C1N=Nc1ccccc1C(=O)O` (stereo not given), the outcome was inactive.

Regarding `O=C1CSC(c2ccccc2O)N1c1ccc(Oc2ccc(Cl)cc2)c(Cl)c1` (stereo not given), the EC50 is > 100 µM and the IC50 turned out to be 24 µM. Taken in the same sequence, the figures for `Cc1ccc(S(=O)(=O)N/N=C\C2c3ccccc3-c3ccccc32)cc1` were > 200 µM and 2.19 µM. Take `C=CCn1c(-c2ccccc2)nn(CC(=O)Nn2c(C)nc3ccccc3c2=O)c1=S`: the outcome was inactive. For the molecule `O=c1oc2ccccc2c(O)c1/C=N/C(=S)NCc1ccccc1`, the EC50 was > 200 µM and the IC50 was > 200 µM.

Turning to `N#CCOc1ccc(/C=C/C(=O)c2ccc(Cl)cc2)cc1`, the EC50 is > 200 µM and the half-maximal inhibitory concentration (IC50) turned out to be 17.4 µM. For the molecule `CC(C)(C)c1ccc(O)c(Cc2cc(C(C)(C)C)cc(Cc3cc(C(C)(C)C)ccc3O)c2O)c1`, the EC50 was > 39.8 µM and the IC50 worked out at 12.9 µM. In the case of `C=C(Br)CN(CC(=C)Br)C(C)=O`, the EC50 is > 200 µM and the IC50 was > 200 µM.

In the case of `O=C(CO)CC(=O)C(=O)Nc1nc([N+](=O)[O-])cs1`, the EC50 was > 132 µM and the half-maximal inhibitory concentration (IC50) was > 132 µM. As for `CC(SCC(=O)O)=[N+]1CCCCC1`, the EC50 is > 891 µM and the IC50 was > 891 µM. `Cc1ccc([P+](Cc2ccccc2)(c2ccccc2)c2cccc3ccccc23)cc1` (stereo not given): the EC50 was > 200 µM and the IC50 was found to be 0.55 µM.

Consider `Cc1ccc(Sc2ccccc2N)cc1`, for which the EC50 was > 178 µM and the IC50 was determined as 51.3 µM. Taken in the same sequence, the figures for `Cc1cccc(N=Nc2c(S(=O)(=O)O)cc3cc(NC(=O)Nc4ccc5c(O)c(N=Nc6ccc7cc(S(=O)(=O)O)ccc7c6)c(S(=O)(=O)O)cc5c4)ccc3c2O)c1` were 15.8 µM and 75.9 µM. Regarding `O=C(O)CCN(CCC(=O)O)c1ccc(/C=C2\SC(=S)NC2=O)cc1`, the EC50 is > 200 µM and the IC50 is 170 µM. Taken in the same sequence, the figures for `COc1cc(C2C(Cl)C(=O)N2NC(=O)c2ccc(NC(C)=O)cc2)cc(Br)c1O` (stereo not given) were > 200 µM and 162 µM. Taken in the same sequence, the figures for `COc1cc(CSc2ccc(O)cc2)cc(O)c1O` were > 126 µM and 22.9 µM. Taken in the same sequence, the figures for `Oc1c(C(O)N2CCOCC2)cc(C(O)N2CCOCC2)c(O)c1O` (stereo not given) (tested in a mixture with another compound) were > 200 µM and 1.91 µM. In the case of `CC(C)=CCc1c(O)cc(O)c2c1O[C@H](c1cc3c(cc1O)O[C@@H](c1ccc(O)cc1)C3c1cc(O)cc(O)c1)CC2=O` (stereo not given in full), the EC50 is > 77.6 µM and the IC50 is 36.3 µM. Taken in the same sequence, the figures for `NC(=O)C(CSSCC(NC(=O)OCc1ccccc1)C(N)=O)NC(=O)OCc1ccccc1` (stereo not given) were > 200 µM and 18.2 µM. Turning to `O.O.O=C(O)C(=O)O.O=C(O)C(=O)O.[Cu]`, the EC50 was > 200 µM and the 50% inhibitory concentration (IC50) is 20.9 µM. Taken in the same sequence, the figures for `COc1ccc2c(c1)OCCN(C)OC2c1cccc(Cl)c1` (stereo not given) were > 200 µM and 87.1 µM. Taken in the same sequence, the figures for `O=C(NNC(=O)c1ccco1)c1ccco1` were > 200 µM and > 200 µM. Taken in the same sequence, the figures for `CCOCC(NC(=O)C(CC(C)C)NC(=O)OC(C)(C)C)C(N)=O` (stereo not drawn) (Boc-Leu-Ser(Et)-NH2; configuration not given here) were > 200 µM and > 200 µM. Regarding `CCN(CC)C(=O)CCNC(C)Cc1c[nH]c2ccccc12` (stereo not given), the EC50 was > 200 µM and the half-maximal inhibitory concentration (IC50) was > 200 µM. Take `CCOC(=O)c1ccc(NC(=O)Nc2ncc(Cl)cc2Cl)cc1`: the EC50 is > 200 µM and the IC50 was > 200 µM. As to `NC(N)=NCCCC(Nc1c2ccccc2nc2ccccc12)C(=O)O` (stereo not given), the outcome was inactive. For the molecule `Cc1c(C(=O)O)oc2ccc([N+](=O)[O-])cc12`, the result was inactive. As to `CC(C)c1c(O[Si](C(C)C)(C(C)C)C(C)C)cc2c(c1O)CC[C@H]1C(C)(C)CCC[C@]21C`, the EC50 was > 200 µM and the IC50 came to 26.9 µM. Taken in the same sequence, the figures for `Cc1cccc2c(NCCC[N+](C)(C)[O-])c3c([N+](=O)[O-])ccc(C)c3nc12` were > 100 µM and 0.372 µM.

For the molecule `O=C1NC(=O)C23C(=O)NC(=O)C12C1C=CC3CC1` (stereo not given), the EC50 is > 200 µM and the IC50 is > 200 µM. On to `Cc1ccc(Nc2nc(C)c(C(/C=C/c3ccc(/C=C/C(=N/NC(=O)C[n+]4ccccc4)c4sc(Nc5ccc(C)cc5[N+](=O)[O-])nc4C)cc3)=N\NC(=O)C[n+]3ccccc3)s2)c([N+](=O)[O-])c1`, for which the EC50 is > 35.5 µM and the half-maximal inhibitory concentration (IC50) was > 35.5 µM. In the case of `Cc1cc(C(=O)O)c(C)cc1SSc1cc(C)c(C(=O)O)cc1C`, the concentration giving a half-maximal response (EC50) was > 105 µM and the IC50 is 75.9 µM. Taken in the same sequence, the figures for `Cn1c(=O)cc(O)c2ccccc21` were > 200 µM and > 200 µM. In the case of `COC(=O)C1=C(\O)C[C@@]2(C)CC[C@@H](C(=O)OC)C2C/C=C\1C(=O)OC` (stereo not given in full), the outcome was inactive. Turning to `O=C1CN(CCN2CCOCC2)CC(=O)N2Cc3ccccc3CN12`, the EC50 is > 200 µM and the IC50 is > 200 µM. In the case of `[O-]c1c(-c2cccc3ccccc23)sc(-c2cccc3ccccc23)[n+]1-c1ccccc1`, the outcome was inactive.

For the molecule `CN1C(=O)CN2C(Cl)(Cl)C2(c2ccccc2)c2cc(Cl)ccc21` (stereo not given), the EC50 was > 200 µM and the IC50 was determined as 120 µM. Taken in the same sequence, the figures for `CC(C)(C)[C@H]1CCC2(OCCO2)[C@](O)(CCCO)C1` were > 200 µM and > 200 µM. Taken in the same sequence, the figures for `CC1(C)CC2CCC(O)C2C(CCO)N1` (stereo not given) were > 200 µM and > 200 µM. For the molecule `CN(C)CC1CCCC/C1=N\OC(=O)c1ccccc1` (stereo not given), the outcome was inactive.

Regarding `C[C@@H](CCO)OC1OC(COC(=O)C(C)(C)C)C(OC(=O)C(C)(C)C)C(OC(=O)C(C)(C)C)C1OC(=O)C(C)(C)C` (stereo not given in full), the EC50 is > 200 µM and the IC50 came out at 12 µM. With `Cc1ccc2c(c1)C(=O)c1[nH]c3ccc(F)cc3c1CO2`, the EC50 is > 200 µM and the IC50 was > 200 µM. As for `CCOC(=O)C(C(=O)OCC)=C1N[C@H](C(=O)OCC)CS1`, the EC50 is > 295 µM and the 50% inhibitory concentration (IC50) is > 295 µM. On to `Nc1ncnc2c1ncn2C1OC(CO)(C(F)(F)F)C(O)C1O` (stereo not given), for which the EC50 is > 200 µM and the IC50 was 182 µM.
